# Structures can show the parent of a compound that is named as a salt. Where two headings read alike, the source gives them in different places.
# Tests used:
# [1] = test system: parent strain (SAWy518); assay: microbe, parasite or virus in culture; design: species or system Saccharomyces cerevisiae SAWy518; Off-target growth counter-screen, OD600 as per cent of untreated wells, strain lacking MCT1; conditions: 18.5 h; sheet Primary Screen - final;; off-target growth of parent strain, about 18 h
# Procedure: Cells were grown for 18 hours prior to OD measurement. Fill represents manual compound grouping based on compound class or target. OD600 is reported in Tecan units. […] The drug library used in this study for the initial screen and rescreen was provided by the Small Molecule Screening Center at Princeton University, through a collaboration with Dr. Hahn Kim. […] Follow-up analysis (IC50 determinations) on library compounds was performed using compounds purchased from outside sources. […] Stocks were then diluted 100-fold into media containing 0.01 OD600 inoculation of yeast, to achieve the final concentrations listed. Where compounds were added manually (for example 10 μM AZD3965 addition) stock concentrations were diluted by a factor of 100-fold regardless of scale, resulting in a final concentration of 1% v/v DMSO which is well tolerated by yeast.
# [2] = test system: parent strain (SAWy518)
compound,measurement,setting,value
CCCc1c(-c2ccc(O)cc2)nn(-c2ccc(O)cc2)c1-c1ccc(O)cc1,viability at 10 µM,[1],99%
O=C1CC(c2ccc(O)cc2)Oc2ccccc21 (stereo not shown),viability at 10 µM,[1],90.8%
O=C(/C=C/c1ccc(O)cc1)c1ccccc1 [4-hydroxychalcone],viability at 10 µM,[1],104%
N#Cc1c(O)c2c(-c3ccc(-c4ccccc4O)cc3)csc2[nH]c1=O [A-769662],viability at 10 µM,[1],102%
same,OffScreen_percentage,[2],102.02 percentage
same,Offscreen_18hr,[2],0.8233
same,Offscreen_24hr,[2],0.9004
same,Offscreen_42hr,[2],0.9609
same,Read_percentage,[2],102.02 percentage
CCOC(=O)[C@H](C)C[C@@H](Cc1ccc(-c2ccccc2)cc1)NC(=O)CCC(=O)O [AHU377],viability at 10 µM,[1],105%
same,OffScreen_percentage,[2],104.585 percentage
same,Offscreen_18hr,[2],0.844
same,Offscreen_24hr,[2],0.9243
same,Offscreen_42hr,[2],0.9874
same,Read_percentage,[2],104.585 percentage
COc1ccc([C@@H](C)C(=O)c2ccc(O)cc2O)cc1 [Angolesin],viability at 10 µM,[1],95.7%
same,OffScreen_percentage,[2],95.7373 percentage
same,Offscreen_18hr,[2],0.7726
same,Offscreen_24hr,[2],0.8843
same,Offscreen_42hr,[2],0.9388
same,Read_percentage,[2],95.7373 percentage
O=c1cc(-c2ccc(O)cc2)oc2cc(O)cc(O)c12 [Apigenin],viability at 10 µM,[1],96.1%
same,OffScreen_percentage,[2],96.0843 percentage
same,Offscreen_18hr,[2],0.7754
same,Offscreen_24hr,[2],0.8699
same,Offscreen_42hr,[2],0.9646
same,Read_percentage,[2],96.0843 percentage
CC(C)(C)CC(C)(C)c1ccc(OCCOCC[N+](C)(C)Cc2ccccc2)cc1 [Benzethonium],viability at 10 µM,[1],95.2%
same,OffScreen_percentage,[2],95.2045 percentage
same,Offscreen_18hr,[2],0.7683
same,Offscreen_24hr,[2],0.892
same,Offscreen_42hr,[2],0.9542
same,Read_percentage,[2],95.2045 percentage
COc1ccc(-c2coc3cc(O)cc(O)c3c2=O)cc1 [Biochanin A],viability at 10 µM,[1],98.1%
same,OffScreen_percentage,[2],98.1165 percentage
same,Offscreen_18hr,[2],0.7918
same,Offscreen_24hr,[2],0.8858
same,Offscreen_42hr,[2],0.9431
same,Read_percentage,[2],98.1165 percentage
O=C(/C=C/c1ccc(O)cc1)CC(=O)/C=C/c1ccc(O)cc1 [Bisdemethoxycurcumin],viability at 10 µM,[1],99.4%
same,OffScreen_percentage,[2],99.4424 percentage
same,Offscreen_18hr,[2],0.8025
same,Offscreen_24hr,[2],0.8965
same,Offscreen_42hr,[2],0.9569
same,Read_percentage,[2],99.4424 percentage
CCOc1nc2cccc(C(=O)OC(C)OC(=O)OC3CCCCC3)c2n1Cc1ccc(-c2ccccc2-c2nnn[nH]2)cc1 (stereo not shown) [Candesartan Cilextil],viability at 10 µM,[1],98.1%
same,OffScreen_percentage,[2],98.0917 percentage
same,Offscreen_18hr,[2],0.7916
same,Offscreen_24hr,[2],0.8922
same,Offscreen_42hr,[2],0.95
same,Read_percentage,[2],98.0917 percentage
CC(C(=O)O)c1ccc2c(c1)[nH]c1ccc(Cl)cc12 (stereo not shown) [Carprofen],viability at 10 µM,[1],90.2%
same,OffScreen_percentage,[2],90.223 percentage
same,Offscreen_18hr,[2],0.7281
same,Offscreen_24hr,[2],0.8523
same,Offscreen_42hr,[2],0.8964
same,Read_percentage,[2],90.223 percentage
CC(C)(Oc1ccc(C2CC2(Cl)Cl)cc1)C(=O)O (stereo not shown) [Ciprofibrate],viability at 10 µM,[1],92.4%
same,OffScreen_percentage,[2],92.3916 percentage
same,Offscreen_18hr,[2],0.7456
same,Offscreen_24hr,[2],0.866
same,Offscreen_42hr,[2],0.9088
same,Read_percentage,[2],92.3916 percentage
"C=CC(C1=CC(=O)C(OC)=CC1=O)c1ccc(O)cc1 (stereo not shown) [DALBERGIONE, 4-METHOXY-4'-HYDROXY-]",viability at 10 µM,[1],102%
C=CC(C1=CC(=O)C=CC1=O)c1ccccc1 (stereo not shown) [Dalbergione],viability at 10 µM,[1],104%
same,OffScreen_percentage,[2],104.3 percentage
same,Offscreen_18hr,[2],0.8417
same,Offscreen_24hr,[2],0.9214
same,Offscreen_42hr,[2],0.9762
same,Read_percentage,[2],104.3 percentage
O=C(O)c1ccc(-n2nc(-c3ccccc3O)nc2-c2ccccc2O)cc1 [Deferasirox],viability at 10 µM,[1],96%
same,OffScreen_percentage,[2],95.9727 percentage
same,Offscreen_18hr,[2],0.7745
same,Offscreen_24hr,[2],0.8724
same,Offscreen_42hr,[2],0.9291
same,Read_percentage,[2],95.9727 percentage
COc1ccc2c(c1)OCc1c-2oc2cc(OC)ccc12 [Dehydrovariabilin],viability at 10 µM,[1],93.8%
same,OffScreen_percentage,[2],93.7794 percentage
same,Offscreen_18hr,[2],0.7568
same,Offscreen_24hr,[2],0.8766
same,Offscreen_42hr,[2],0.938
same,Read_percentage,[2],93.7794 percentage
N#CC(c1ccc(Cl)cc1)c1c(Cl)cc(-n2ncc(=O)[nH]c2=O)cc1Cl (stereo not shown) [Diclazuril],viability at 10 µM,[1],92.7%
same,OffScreen_percentage,[2],92.7138 percentage
same,Offscreen_18hr,[2],0.7482
same,Offscreen_24hr,[2],0.8733
same,Offscreen_42hr,[2],0.9299
same,Read_percentage,[2],92.7138 percentage
O=C(O)Cc1ccccc1Nc1c(Cl)cccc1Cl [Diclofenac],viability at 10 µM,[1],101%
C/C=C(/C(=C/C)c1ccc(O)cc1)c1ccc(O)cc1 [Dienestrol],viability at 10 µM,[1],99.3%
same,OffScreen_percentage,[2],99.2565 percentage
same,Offscreen_18hr,[2],0.801
same,Offscreen_24hr,[2],0.8973
same,Offscreen_42hr,[2],0.9599
same,Read_percentage,[2],99.2565 percentage
CC/C(=C(/CC)c1ccc(O)cc1)c1ccc(O)cc1 [Diethylstilbestrol],viability at 10 µM,[1],103%
same,OffScreen_percentage,[2],102.565 percentage
same,Offscreen_18hr,[2],0.8277
same,Offscreen_24hr,[2],0.9171
same,Offscreen_42hr,[2],0.9776
same,Read_percentage,[2],102.565 percentage
O=C(O)c1ccccc1-c1c2cc(I)c(=O)c(I)c-2oc2c(I)c(O)c(I)cc12 [Erythrosine],viability at 10 µM,[1],101%
CC(Cc1ccc(O)c(O)c1)C(C)Cc1ccc(O)c(O)c1 (stereo not shown) [Nordihydroguaiaretic_acid],viability at 10 µM,[1],101%
CN1C(C(=O)Nc2ccccn2)=C(O)c2ccccc2S1(=O)=O [Piroxicam],viability at 10 µM,[1],95.2%
O=c1c(O)c(-c2ccc(O)c(O)c2)oc2cc(O)cc(O)c12 [Quercetin],viability at 10 µM,[1],96.1%
CS(=O)(=O)c1ccc(C2=C(c3ccccc3)C(=O)OC2)cc1 [Rofecoxib],viability at 10 µM,[1],104%
CC1=C(CC(=O)O)c2cc(F)ccc2/C1=C\c1ccc([S+](C)[O-])cc1 (stereo not shown) [Sulindac],viability at 10 µM,[1],103%
"CCCCCCC(=O)OC1CC(C)(C)NC(C)(C)C1.Cl [TMPH hydrochloride, reference compound]",Offtarget,[2],NO
same,Offtarget_sub,[2],0.4142
CC(C)(C)C(=O)C(Oc1ccc(Cl)cc1)n1cncn1 (stereo not shown) [TRIADIMEFON],Offscreen_18hr,[2],0.0626
same,Offscreen_24hr,[2],0.0684
same,Offscreen_42hr,[2],0.2136
CSc1nc2cc(Cl)c(Oc3cccc(Cl)c3Cl)cc2[nH]1 [TRICLABENDAZOLE],Offscreen_18hr,[2],0.3546
same,Offscreen_24hr,[2],0.5896
same,Offscreen_42hr,[2],0.8341
CO[C@H]1C[C@@H]2CC[C@@H](C)[C@@](O)(O2)C(=O)C(=O)N2CCCC[C@H]2C(=O)O[C@H]([C@H](C)C[C@@H]2CC[C@@H](OC(=O)C(C)(CO)CO)[C@H](OC)C2)CC(=O)[C@H](C)/C=C(\C)[C@@H](O)[C@@H](OC)C(=O)[C@H](C)C[C@H](C)/C=C/C=C/C=C/1C [Temsirolimus],Offscreen_18hr,[2],0.0544
same,Offscreen_24hr,[2],0.0562
same,Offscreen_42hr,[2],0.0968
CN(C/C=C/C#CC(C)(C)C)Cc1cccc2ccccc12 [Terbinafine hydrochloride],Offscreen_18hr,[2],0.3316
same,Offscreen_24hr,[2],0.5468
same,Offscreen_42hr,[2],0.9146
CCN(CC)C(=S)SSC(=S)N(CC)CC [Tetraethylthiuram disulfide],Offscreen_18hr,[2],0.0416
same,Offscreen_24hr,[2],0.0418
same,Offscreen_42hr,[2],0.0415
Oc1cc(Cl)ccc1Oc1ccc(Cl)cc1Cl [Triclosan],Offscreen_18hr,[2],0.1779
same,Offscreen_24hr,[2],0.3017
same,Offscreen_42hr,[2],0.8343
COc1ccc2c(c1)CC[C@@H]1[C@@H]2CC[C@]2(C)[C@H](NCCCCCCN3C(=O)C=CC3=O)CC[C@@H]12 [U 73122],Offscreen_18hr,[2],0.5917
same,Offscreen_24hr,[2],0.8296
same,Offscreen_42hr,[2],0.9704
CCC[C@H](NC(=O)/C(C#N)=C/c1cccc(Br)n1)c1ccccc1 [WP1130],Offscreen_18hr,[2],0.6544
same,Offscreen_24hr,[2],0.8363
same,Offscreen_42hr,[2],0.9253
COCCN1C2=C(C(=O)c3ccccc3C2=O)N(Cc2cnccn2)C1C (stereo not shown) [YM155],viability at 10 µM,[1],104%
CC(C)N(CCC(=O)c1ccc2ccccc2c1)Cc1ccccc1.Cl [ZM 39923 HCl],Offscreen_18hr,[2],0.0402
same,Offscreen_24hr,[2],0.0403
same,Offscreen_42hr,[2],0.0401
O=c1[nH]c(=O)c2ccccc2o1 [pu-sc-0002 H19],18 hours,[2],0.7281
same,24 hours,[2],0.8523
same,48 hours,[2],0.8964
Erythrosine,OffScreen_percentage,[2],100.818 percentage
same,Offscreen_18hr,[2],0.8136
same,Offscreen_24hr,[2],0.8985
same,Offscreen_42hr,[2],0.9466
same,Read_percentage,[2],100.818 percentage
JAK3 Inhibitor VI,Offscreen_18hr,"[2]; parent strain growth reading, 18 hr",0.0531
same,Offscreen_24hr,"[2]; parent strain growth reading, 24 hr",0.0592
same,Offscreen_42hr,"[2]; parent strain growth reading, 42 hr",0.0892
OXYCLOZANIDE,Offscreen_18hr,[2],0.5071
same,Offscreen_24hr,[2],0.6783
same,Offscreen_42hr,[2],0.7815
